Source: patent US11156599B2, “Assay for telomere length regulators” (The Johns Hopkins University, priority 2015, dated 2021)

What was measured:
[1] = tested on: de novo telomere addition on chr4 in SL13 cells; test: ADDIT assay (Addition of de novo initiated telomeres): modified STELA PCR and PacBio sequencing; format: cell-based, mouse; conditions: for de novo telomere addition compared to DMSO control: cells treated with DMSO, KU55933, Olaparib or both drugs
Description: To examine potential mammalian genes that regulate telomere length, an assay was developed that allows visualization of telomere addition in vivo, referred here as ADDIT (Addition of de novo initiated telomeres). In a chromosomally stable CASTEiJ mouse fibroblast cell line, chromosome 4 (chr4) was modified to generate an internal 480 bp telomere ‘seed’ sequence followed by a unique I-Sce1 endonuclease cut site (FIG. 1A). The length of seed sequence was based on an early study showing that 400 bp of telomere repeats can act as functional telomeres. Using Southern blot analysis, two independent HYG-positive clones were identified, clone 1L and 1M, with a single chr4 allele correctly modified (data not shown).
To better visualize the telomere addition on the I-Sce1 cut telomere seed, the single telomere length analysis (STELA) (Baird et al., 2004, Hum Mol Genet 13, 1515-1524), a PCR-based approach that can measure telomere lengths from individual chromosome ends was modified. The STELA assay employs annealing and ligation of a linker, ‘telorette’, with TTAGGG and a unique 20-nucleotide sequence to the G-rich 3′ telomere overhang followed by PCR of the telomere from a ‘teltail’ primer and primer in the HYG sequence on the engineered chromosome (FIG. 2). The PCR product lengths will be proportional to the telomere lengths at the cleaved chr4 allele. As a control, to amplify the un-extended cut chromosome in vitro, a different linker, ‘IScerette’ was designed, which has a 4-nt homology to the 4-nt 3′ overhang created by the I-Sce1 endonuclease at the cleavage site (FIG. 2). […] This in vitro IScerette PCR product serves as a marker for the base line length of the cut, unextended telomere seed sequence.
To further verify the longer STELA PCR products represent de novo telomere addition, the PCR products were sequenced with Pacific Biosciences (PACBIO®) next generation sequencing technology. The PACBIO® platform produces longer reads and is less GC bias compared to other next generation sequencing platforms. While errors were present in the sequence as expected, the telomere repeats were easily recognizable. All of the reads from the PACBIO® were filtered and only those that had unique HYG sequence followed by telomere sequence and the ‘teltail’ primer sequence were examined. This assures that only full length of STELA PCR products were analyzed. The reads were then aligned at the junction between the HYG sequence and the telomere repeats. Wild-type TTAGGG repeats were colored orange and variant telomere repeats were colored in darker orange (FIG. 3A). Some of these variants arose due to errors in sequencing. An error rate similar to the published error rate of PACBIO® sequencing, 10-15% was observed. The errors were uniformly distributed over the reference sequence, dominated by point insertions and deletions, as expected for PACBIO® sequencing. There were three regions of divergent sequence in the original construct that are evident as darker orange stripes in the aligned reads (see for reference, in vitro IScelrette). These are small variation in TTAGGG sequence in the original SL13 clone and serve as useful internal reference points.
The original STELA protocol used for human cells (Baird et al., 2004, Hum Mol Genet 13, 1515-1524) was modified to measure telomere lengths on the de novo end of chr4 in SL13 cells. Briefly, genomic DNA was extracted using Puregene Core Kit A ^TM (Qiagen). 4 μg of genomic DNA was digested with SphI (NEB) and later diluted to 10 ng/μl in water. For the in vitro IScerette sample, genomic DNA was digested with SphI and I-SceI (NEB) prior to ligation. The ligation was carried out at 35° C. for at least 12 hrs in a volume of 10 μl containing 10 ng of digested genomic DNA, 0.9 μM of telorette linkers (mixture of telorette 1 to 6) or IScerette linker and 0.5 U of T4 DNA ligase (NEB) in 1× T4 ligation buffer. […]

SL13 cells = test: Telomere length by Southern blot in continuously growing SL13 cells; format: cell-based, mouse
Procedure: Given that ATM inhibitor KU55933 treatment prevents telomere elongation by telomerase overexpression, whether KU55933 treatment shortens telomere lengths in continuously growing cells was tested. […] The distinct non-telomeric bands served as useful loading controls, confirming all lanes were equally loaded (FIG. 9B, pixel position 1 and 3).
Cell lines such as 293FT and HCT116 were grown in DMEM (Gibco) supplemented with 1% Penicillin/Streptomycin/Glutamine (PSG) and 10% heat inactivated FBS (Invitrogen). SL13 cells were grown in DMEM (Gibco) supplemented with 1% PSG and 10% Tet system approved FBS (Clontech, #631107). Final concentration of 2 μg/ml of doxycycline was added in the media to induce I-Sce1 expression. Typically cells were collected post 48 hours of doxcycline treatment. […]
To measure telomere lengths by Southern blot, genomic DNA was extracted from cell pellets collected at different population doublings using the Puregene Core Kit A™ (Qiagen). […] Labeled probe was counted and 10^6 counts/ml (telomere probe) or 10^4 counts/ml (ladder) was denatured at 100° C. for 5 minutes and added to the pre-hybridization solution and hybridized overnight at 65° C. Membranes were washed 3× 15 minutes each in 6× SSC and 1% SDS at 65° C., and 3× 15 minutes each in 1× SSC and 1% SDS at 65° C. and exposed to a phosphorimager screen and detected on a Fuji phosphorimager. […]

| Compound | addition of de novo telomere repeats beyond the I-Sce1 site ([1]; 48 hrs doxycycline, 10 μM KU55933 or 5 nM siATM) | de novo telomere addition compared to DMSO control ([1]; different STELA primers) | telomere lengths at various population doublings (SL13 cells; SL13 cells, 10 μM KU55933) | percentage of reads with telomere elongation ([1]; cells treated with Olaparib or both drugs, different STELA primers) [%] | telomere length at various PDs (SL13 cells; SL13 cells grown in the presence of Olaparib, Southern blot) |
| --- | --- | --- | --- | --- | --- |
| O=c1cc(-c2cccc3c2Sc2ccccc2S3)oc(N2CCOCC2)c1 [KU55933] | fewer and significantly shorter elongation products | less de novo telomere addition compared to DMSO control | gradually shortened with increasing cell PDs |  |  |
| O=C(c1cc(Cc2n[nH]c(=O)c3ccccc23)ccc1F)N1CCN(C(=O)C2CC2)CC1 [Olaparib] |  | significantly higher percentage of de novo telomere addition |  | 22.4 | gradually increased after 25 PDs |
